Measurements reported in patent US9409952B2, “Peptide-compound cyclization method” (Chugai Seiyaku Kabushiki Kaisha, priority 2011, dated 2016).
Starred links: 1 amine or outer side, 2 acyl side, 3 side chain; linkers in the order of their positions; H or OH if unused. Positions of bridges follow the written chain, without caps; N, C: chain ends. Non-standard residues stand in square brackets, D forms with d. Residues, ends and D or L forms follow the SMILES beside them. *: point of attachment. NMeF = CN[C@@H](Cc1ccccc1)C(=O)O; NMeGABA = CN(CCCC(=O)[*:2])[*:1]; NMeβAla = CN(CCC(=O)[*:2])[*:1]; NMeL = CN[C@@H](CC(C)C)C(=O)O; NMeV = CN[C@H](C(=O)O)C(C)C; NMeA = CN[C@@H](C)C(=O)O; Piperidide = C1CCN(*)CC1; dNMeA = CN[C@H](C)C(=O)O; Sar = CNCC(=O)O; tBu = CC(C)(C)*

Assays:
[1] = PAMPA (parallel artificial membrane permeability assay); type: in vitro ADME; details: PAMPA; membrane permeation rate (Pe); 50 mM MOPSO buffer pH 6.5 with 5.0% glycocholic acid, 37° C., 18 hours; read-out: iPAMPA Pe
Summary of the method: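 Artificial membrane was 10% (w/v) egg lecithin plus 0.5% (w/v) cholesterol in dodecane on a PVDF filter. A 10 mM DMSO stock was added at 0.5% (v/v) to donor buffer (50 mM MOPSO, pH 6.5, 5.0% glycocholic acid). After 18 h at 37 °C, LC/MS or LC/UV gave donor and acceptor levels for Pe.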

[2] = Metabolic stability in human hepatic microsome; type: in vitro ADME; details: microsomes, pH 7.4; human hepatic microsome, NADPH(+); read-out: CL NADPH(+)

Structure (SMILES)	Papp at 18 hours, 50 µM [1] [×10⁻⁶ cm/s]	microsomal CLint at 1 uM [2] [µL/min/mg]
CC[C@H](C)[C@@H]1NC(=O)[C@H](C(C)C)N(C)C(=O)[C@H](CC(C)C)N(C)C(=O)[C@H](Cc2ccccc2)NC(=O)[C@@H](C)N(C)C(=O)C[C@@H](C(=O)N(C)[C@@H](Cc2ccccc2)C(=O)N(C)[C@@H](Cc2ccccc2)C(=O)N[C@@H](C)C(=O)N2CCCCC2)NC(=O)[C@H](C)N(C)C(=O)[C@H]([C@@H](C)O)NC(=O)[C@H](CC(C)C)N(C)C(=O)CN(C)C1=O [DP-454] ([dNMeA]F[NMeL][NMeV]I[Sar][NMeL]T[NMeA]D[NMeF][NMeF]A-Piperidide; lactam N-10)	14	50
CC[C@H](C)[C@@H]1NC(=O)[C@H](C)N(C)C(=O)[C@H](Cc2ccccc2)N(C)C(=O)[C@@H](C)N(C)C(=O)C[C@@H](C(=O)N(C)[C@@H](Cc2ccccc2)C(=O)N(C)[C@@H](Cc2ccccc2)C(=O)N[C@@H](C)C(=O)N2CCCCC2)NC(=O)[C@H](C)N(C)C(=O)[C@H]([C@@H](C)O)NC(=O)[C@H](C)N(C)C(=O)[C@H](CC(C)C)N(C)C(=O)[C@H](C)N(C)C1=O [DP-455] ([dNMeA][NMeF][NMeA]I[NMeA][NMeL][NMeA]T[NMeA]D[NMeF][NMeF]A-Piperidide; lactam N-10)	15	17
CC(C)C[C@H]1C(=O)N[C@@H](Cc2ccccc2)C(=O)N(C)[C@@H](C(C)C)C(=O)N[C@@H]([C@@H](C)O)C(=O)N[C@H](C(=O)N(C)[C@@H](Cc2ccccc2)C(=O)N(C)[C@@H](Cc2ccccc2)C(=O)N[C@@H](C)C(=O)N2CCCCC2)CC(=O)N(C)[C@@H](C)C(=O)N(C)[C@@H](C)C(=O)N[C@@H](C(C)C)C(=O)N(C)[C@@H](Cc2ccccc2)C(=O)NCC(=O)N1C [DP-456] ([NMeA][NMeA]V[NMeF]G[NMeL]F[NMeV]TD[NMeF][NMeF]A-Piperidide; lactam N-10)	41	29
CC(C)[C@@H]1NC(=O)[C@H](C)N(C)C(=O)[C@H](C)N(C)C(=O)[C@H](Cc2ccccc2)N(C)C(=O)CNC(=O)[C@H]([C@@H](C)O)NC(=O)[C@H](C(C)C)N(C)C(=O)[C@H](C)NC(=O)[C@H](C)N(C)C(=O)C[C@@H](C(=O)N(C)[C@@H](Cc2ccccc2)C(=O)N(C)[C@@H](Cc2ccccc2)C(=O)N[C@@H](C)C(=O)N2CCCCC2)NC1=O [DP-457] ([NMeA]A[NMeV]TG[NMeF][NMeA][NMeA]VD[NMeF][NMeF]A-Piperidide; lactam N-10)	10	14
CC(C)C[C@H]1C(=O)N[C@@H](C)C(=O)N(C)[C@@H](C)C(=O)N[C@H](C(=O)N(C)[C@@H](Cc2ccccc2)C(=O)N[C@@H](C)C(=O)N2CCCCC2)CC(=O)N(C)[C@@H](C)C(=O)N(C)[C@@H](C(C)C)C(=O)N(C)[C@@H](C)C(=O)N[C@@H]([C@@H](C)O)C(=O)N(C)[C@@H](C)C(=O)N[C@@H](Cc2ccccc2)C(=O)N1C [DP-458] ([NMeA][NMeV][NMeA]T[NMeA]F[NMeL]A[NMeA]D[NMeF]A-Piperidide; lactam N-10)	7.7	10
CC[C@H](C)[C@@H]1NC(=O)[C@H](CC(C)C)N(C)C(=O)CN(C)C(=O)[C@H]([C@@H](C)O)NC(=O)[C@H](C)N(C)C(=O)[C@H](Cc2ccccc2)NC(=O)[C@H](CC(C)C)N(C)C(=O)[C@H](C)N(C)C(=O)C[C@@H](C(=O)N(C)[C@@H](Cc2ccccc2)C(=O)N(C)[C@@H](Cc2ccccc2)C(=O)N[C@@H](C)C(=O)N2CCCCC2)NC(=O)[C@H](C(C)C)N(C)C1=O [DP-459] ([NMeA][NMeL]F[NMeA]T[Sar][NMeL]I[NMeV]D[NMeF][NMeF]A-Piperidide; lactam N-10)	19	143
CC(C)[C@@H]1NC(=O)[C@H](C)N(C)C(=O)[C@H](Cc2ccccc2)N(C)C(=O)[C@H](C)N(C)C(=O)[C@H]([C@@H](C)O)NC(=O)[C@H](C)N(C)C(=O)[C@H](C)N(C)C(=O)C[C@@H](C(=O)N(C)[C@@H](Cc2ccccc2)C(=O)N(C)[C@@H](Cc2ccccc2)C(=O)N[C@@H](C)C(=O)N2CCCCC2)NC(=O)[C@H](C)N(C)C(=O)[C@H](C)N(C)C1=O [DP-460] ([NMeA][NMeA]T[NMeA][NMeF][NMeA]V[NMeA][NMeA]D[NMeF][NMeF]A-Piperidide; lactam N-10)	5.1	17
CC(C)C[C@@H]1NC(=O)[C@H](CC(C)C)N(C)C(=O)CCN(C)C(=O)C[C@@H](C(=O)N(C)[C@@H](Cc2ccccc2)C(=O)N[C@@H](C)C(=O)N2CCCCC2)NC(=O)[C@H]([C@@H](C)O)NC(=O)[C@H](CC(C)C)N(C)C(=O)[C@H](Cc2ccccc2)NC(=O)[C@H](Cc2ccccc2)N(C)C(=O)[C@H](CC(C)C)N(C)C1=O [DP-461] ([NMeβAla][NMeL]L[NMeL][NMeF]F[NMeL]TD[NMeF]A-Piperidide; lactam N-9)	33	78
CC(C)C[C@H]1C(=O)N(C)[C@@H](C)C(=O)N[C@@H]([C@@H](C)O)C(=O)N(C)[C@@H](C)C(=O)N[C@H](C(=O)N(C)[C@@H](Cc2ccccc2)C(=O)N[C@@H](C)C(=O)N2CCCCC2)CC(=O)N(C)[C@H](C)C(=O)N(C)[C@@H](Cc2ccccc2)C(=O)N(C)[C@@H](C)C(=O)N[C@@H](C(C)C)C(=O)N1C [DP-462] ([dNMeA][NMeF][NMeA]V[NMeL][NMeA]T[NMeA]D[NMeF]A-Piperidide; lactam N-9)	9.5	17
CC(C)C[C@H]1C(=O)N(C)[C@@H](C)C(=O)N[C@H](C(=O)N(C)[C@@H](Cc2ccccc2)C(=O)N(C)[C@@H](Cc2ccccc2)C(=O)N[C@@H](C)C(=O)N2CCCCC2)CC(=O)N(C)[C@H](C)C(=O)N(C)[C@@H](Cc2ccccc2)C(=O)N(C)CC(=O)N[C@@H]([C@@H](C)O)C(=O)N[C@@H](C)C(=O)N(C)[C@@H](C)C(=O)N1C [DP-463] ([dNMeA][NMeF][Sar]TA[NMeA][NMeL][NMeA]D[NMeF][NMeF]A-Piperidide; lactam N-9)	3.1	10
CC(C)C[C@H]1C(=O)N[C@@H]([C@@H](C)O)C(=O)N(C)[C@@H](C)C(=O)N[C@@H](C(C)C)C(=O)N(C)[C@@H](C)C(=O)N(C)[C@@H](C)C(=O)N[C@H](C(=O)N(C)[C@@H](Cc2ccccc2)C(=O)N(C)[C@@H](Cc2ccccc2)C(=O)N[C@@H](C)C(=O)N2CCCCC2)CC(=O)N(C)[C@@H](C)C(=O)N(C)[C@@H](Cc2ccccc2)C(=O)N1C [DP-464] ([NMeA][NMeF][NMeL]T[NMeA]V[NMeA][NMeA]D[NMeF][NMeF]A-Piperidide; lactam N-9)	25	30
CC(C)C[C@H]1C(=O)N(C)[C@@H](C)C(=O)N[C@@H]([C@@H](C)O)C(=O)N(C)[C@@H](C)C(=O)N(C)[C@@H](C(C)C)C(=O)N[C@@H](COC(C)(C)C)C(=O)N[C@H](C(=O)N2CCCCC2)CC(=O)N(C)CCC(=O)N(C)[C@@H](Cc2ccccc2)C(=O)N[C@@H](C)C(=O)N(C)[C@@H](C)C(=O)N[C@@H](Cc2ccccc2)C(=O)N1C [DP-465] ([NMeβAla][NMeF]A[NMeA]F[NMeL][NMeA]T[NMeA][NMeV]S(tBu)D-Piperidide; lactam N-12)	5.1	23
CC(C)C[C@@H]1NC(=O)[C@H](CC(C)C)N(C)C(=O)[C@H](Cc2ccccc2)N(C)C(=O)[C@@H](C)N(C)C(=O)C[C@@H](C(=O)N2CCCCC2)NC(=O)[C@H](Cc2ccccc2)N(C)C(=O)[C@H](C)N(C)C(=O)[C@H](C)NC(=O)CN(C)C(=O)[C@H](C)N(C)C(=O)[C@H]([C@@H](C)O)NC(=O)[C@H](C(C)C)N(C)C1=O [DP-466] ([dNMeA][NMeF][NMeL]L[NMeV]T[NMeA][Sar]A[NMeA][NMeF]D-Piperidide; lactam N-12)	15	17
CC(C)C[C@@H]1NC(=O)[C@H](C(C)C)N(C)C(=O)[C@H](C)N(C)C(=O)[C@H](Cc2ccccc2)N(C)C(=O)[C@H](Cc2ccccc2)NC(=O)[C@@H](C)N(C)C(=O)C[C@@H](C(=O)N2CCCCC2)NC(=O)[C@H]([C@@H](C)O)NC(=O)[C@H](C)N(C)C(=O)[C@H](C)N(C)C(=O)[C@H](C)NC(=O)CN(C)C1=O [DP-467] ([dNMeA]F[NMeF][NMeA][NMeV]L[Sar]A[NMeA][NMeA]TD-Piperidide; lactam N-12)	1.5	12
CC[C@H](C)[C@@H]1NC(=O)CCCN(C)C(=O)C[C@@H](C(=O)N2CCCCC2)NC(=O)[C@H](Cc2ccccc2)N(C)C(=O)[C@H](CC(C)C)N(C)C(=O)CN(C)C(=O)[C@H]([C@@H](C)O)NC(=O)[C@H](C)N(C)C(=O)[C@H](C(C)C)N(C)C(=O)[C@H](C)NC(=O)[C@H](CC(C)C)N(C)C(=O)[C@H](Cc2ccccc2)N(C)C1=O [DP-468] ([NMeGABA]I[NMeF][NMeL]A[NMeV][NMeA]T[Sar][NMeL][NMeF]D-Piperidide; lactam N-12)	27	53
CC(C)C[C@@H]1NC(=O)[C@H](Cc2ccccc2)N(C)C(=O)[C@H](C)N(C)C(=O)C[C@@H](C(=O)N2CCCCC2)NC(=O)[C@H](Cc2ccccc2)N(C)C(=O)[C@H](C)N(C)C(=O)[C@H]([C@@H](C)O)NC(=O)CN(C)C(=O)[C@H](C)N(C)C(=O)[C@H](C)NC(=O)[C@H](C(C)C)N(C)C(=O)[C@H](CC(C)C)N(C)C1=O [DP-469] ([NMeA][NMeF]L[NMeL][NMeV]A[NMeA][Sar]T[NMeA][NMeF]D-Piperidide; lactam N-12)	14	23
